Data reported in patent publication US6589915B1, “Benzohetero cyclylcyclo hexenones and their use as herbicides” (BASF Aktiengesellschaft, priority 1999, dated 2003).

Tests used:
Type in all cases: in vivo
IPOSS = experiment: greenhouse post-emergence herbicidal test
Text: (§1) The seeds of the test plants were sown separately for each species. For the post-emergence treatment, the test plants were first, grown to a plant height of from 3 to 15 cm, depending on the plant habit, and only then treated with the active ingredients which had been suspended or emulsified in water. To this end, the test plants were either sown directly and grown in the same containers, or they were first grown separately as seedlings and transplanted into the test containers a few days prior to treatment. […] Depending on the species, the plants were kept at from 10 to 25° C., or 20 to 35° C., respectively. The test period extended over 2 to 4 weeks. During this time, the plants were tended, and their response to the individual treatments was evaluated. Evaluation was carried out using a scale of from 0 to 100. 100 means no emergence of the plants, or complete destruction of at least the aerial parts, and 0 means no damage, or normal course of growth. The following experiments were performed by the post-emergence method.

[1] = test system: CHEAL (lambsquarters (goosefoot)); experiment: greenhouse post-emergence herbicidal test
Text: as §1, with “growth. [table]” for “growth.”

AMARE (redroot pigweed) = experiment: greenhouse post-emergence herbicidal test
Text: as §1, with “growth. [table]” for “growth.”

POLPE (ladysthumb) = experiment: greenhouse post-emergence herbicidal test
Text: as §1, with “growth. [table]” for “growth.”

wheat = experiment: greenhouse post-emergence test, crop selectivity; conditions: 0.25 and 0.5 kg/ha (a.s.)
Text: as §1, with “growth. [table]” for “growth.”

SETFA (giant foxtail) = experiment: greenhouse post-emergence herbicidal test
Text: as §1, with “growth. [table]” for “growth.”

ECHCG (barnyard grass) = experiment: greenhouse post-emergence herbicidal test
Text: as §1, with “growth. [table]” for “growth.”

ABUTH (velvet leaf) = experiment: greenhouse post-emergence herbicidal test
Text: as §1, with “growth. [table]” for “growth.”

PHPBU = experiment: greenhouse post-emergence herbicidal test; conditions: 0.125 and 0.25 kg/ha (a.s.)
Text: (§2) The seeds of the test plants were sown separately for each species. For the post-emergence treatment, the test plants were first, grown to a plant height of from 3 to 15 cm, depending on the plant habit, and only then treated with the active ingredients which had been suspended or emulsified in water. To this end, the test plants were either sown directly and grown in the same containers, or they were first grown separately as seedlings and transplanted into the test containers a few days prior to treatment. The rat e of application for the post-emergence treatment was 0.25 or 0.125 kg of a.s. (active substance)/ha. Depending on the species, the plants were kept at from 10 to 25° C., or 20 to 35° C., respectively. The test period extended over 2 to 4 weeks. During this time, the plants were tended, and their response to the individual treatments was evaluated. Evaluation was carried out using a scale of from 0 to 100. 100 means no emergence of the plants, or complete destruction of at least the aerial parts, and 0 means no damage, or normal course of growth. [table] The following experiments were performed by the post-emergence method.

[2] = test system: GALAP (catchweed bedstraw); experiment: greenhouse post-emergence herbicidal test; conditions: 0.125 and 0.25 kg/ha (a.s.)
Text: as §2

Cc1c(C(=O)C2=C(O)CCCC2=O)ccc2scnc12 [Example I-1a.394]
very good: herbicidal action against IPOSS (IPOSS; 0.25 and 0.5 kg/ha (a.s.)) | herbicidal action against CHEAL ([1]; 0.25 and 0.5 kg/ha (a.s.)) | herbicidal action against AMARE (AMARE (redroot pigweed); 0.25 and 0.5 kg/ha (a.s.)) | herbicidal action against POLPE (POLPE (ladysthumb); 0.25 and 0.5 kg/ha (a.s.))
selectivity: selectivity in wheat (wheat)

Cc1c(C(=O)C2=C(O)C3CCC(C3)C2=O)ccc2sc(Oc3ccccc3F)nc12 (centres unmarked) [Example I-1x.790]
very good: herbicidal action against SETFA (SETFA (giant foxtail); 0.125 and 0.25 kg/ha (a.s.)) | herbicidal action against CHEAL ([1]; 0.125 and 0.25 kg/ha (a.s.)) | herbicidal action against ECHCG (ECHCG (barnyard grass); 0.125 and 0.25 kg/ha (a.s.)) | herbicidal action against POLPE (POLPE (ladysthumb); 0.125 and 0.25 kg/ha (a.s.))

CCc1nc2c(C)c(C(=O)C3=C(O)C4CCC(C4)C3=O)ccc2o1 (centres unmarked) [Example I-2x.406]
good to very good: herbicidal action against CHEAL ([1]; 0.0625 and 0.125 kg/ha (a.s.)) | herbicidal action against ECHCG (ECHCG (barnyard grass); 0.0625 and 0.125 kg/ha (a.s.)) | herbicidal action against POLPE (POLPE (ladysthumb); 0.0625 and 0.125 kg/ha (a.s.)) | herbicidal action against ABUTH (ABUTH (velvet leaf); 0.0625 and 0.125 kg/ha (a.s.))

CSc1nc2c(C)c(C(=O)C3=C(O)C4CCC(C4)C3=O)ccc2s1 (centres unmarked) [Example I-1x.435]
very good: herbicidal action against CHEAL ([1]; 0.0625 and 0.125 kg/ha (a.s.)) | herbicidal action against ECHCG (ECHCG (barnyard grass); 0.0625 and 0.125 kg/ha (a.s.)) | herbicidal action against AMARE (AMARE (redroot pigweed); 0.0625 and 0.125 kg/ha (a.s.))

Cc1c(C(=O)C2=C(O)CCCC2=O)ccc2sc(C(C)C)nc12 [Example I-1a.408]
good to very good: herbicidal action against CHEAL ([1]; 0.125 and 0.25 kg/ha (a.s.)) | herbicidal action against ECHCG (ECHCG (barnyard grass); 0.125 and 0.25 kg/ha (a.s.)) | herbicidal action against POLPE (POLPE (ladysthumb); 0.125 and 0.25 kg/ha (a.s.)) | herbicidal action against ABUTH (ABUTH (velvet leaf); 0.125 and 0.25 kg/ha (a.s.))

COCc1nc2c(C)c(C(=O)C3=C(O)C4CCC(C4)C3=O)ccc2s1 (centres unmarked) [Example I-1x.420]
very good: herbicidal action against SETFA (SETFA (giant foxtail); 0.125 and 0.25 kg/ha (a.s.)) | herbicidal action against CHEAL ([1]; 0.125 and 0.25 kg/ha (a.s.)) | herbicidal action against ECHCG (ECHCG (barnyard grass); 0.125 and 0.25 kg/ha (a.s.)) | herbicidal action against POLPE (POLPE (ladysthumb); 0.125 and 0.25 kg/ha (a.s.)) | herbicidal action against PHPBU (PHPBU)

CCc1nc2c(C)c(C(=O)C3=C(O)CCCC3=O)ccc2o1 [Example I-2a.406]
very good: herbicidal action against IPOSS (IPOSS; 0.125 and 0.25 kg/ha (a.s.)) | herbicidal action against CHEAL ([1]; 0.125 and 0.25 kg/ha (a.s.)) | herbicidal action against AMARE (AMARE (redroot pigweed); 0.125 and 0.25 kg/ha (a.s.)) | herbicidal action against ABUTH (ABUTH (velvet leaf); 0.125 and 0.25 kg/ha (a.s.))
good: herbicidal action against GALAP [2]

CCc1nc2c(C)c(C(=O)C3=C(O)C4CCC(C4)C3=O)ccc2s1 (centres unmarked) [Example I-1x.406]
very good: herbicidal action against CHEAL ([1]; 0.125 and 0.25 kg/ha (a.s.)) | herbicidal action against ECHCG (ECHCG (barnyard grass); 0.125 and 0.25 kg/ha (a.s.)) | herbicidal action against POLPE (POLPE (ladysthumb); 0.125 and 0.25 kg/ha (a.s.)) | herbicidal action against ABUTH (ABUTH (velvet leaf); 0.125 and 0.25 kg/ha (a.s.))

Cc1c(C(=O)C2=C(O)CC(C)(C)CC2=O)ccc2sc(Cl)nc12 [Example I-1c.396]
good to very good: herbicidal action against SETFA (SETFA (giant foxtail); 0.25 and 0.5 kg/ha (a.s.)) | herbicidal action against CHEAL ([1]; 0.25 and 0.5 kg/ha (a.s.)) | herbicidal action against ECHCG (ECHCG (barnyard grass); 0.25 and 0.5 kg/ha (a.s.)) | herbicidal action against AMARE (AMARE (redroot pigweed); 0.25 and 0.5 kg/ha (a.s.))
